Measurements taken from patent EP4506003A1, “HALOGEN DERIVATIVES OF (4´,5´- METHYLENEDIOXYPHENYL)-6,7-DIMETHOXY-1,2,3,4-TETRAHYDROISOQUINOLINE FOR USE IN THE TREATMENT OF LEUKEMIA” (S.Yu Yunusov Institute of Chemistry of Plant Substances of …, priority 2023, dated 2025).
Marks after values point to notes of the source that are not given here.

Assays:
lung cancer H460 = settings: cited from earlier work
cervical carcinoma cells = settings: read-out: CE50 dose; cited from earlier work
[1] = system: blood of patients with leukemia (combined group); experiment: Hemogram of blood of patients with leukemia (combined group) after exposure; type: cell-based
Text: (§3) The effect of compounds F1 and F2 was studied on biological material (blood) of patients with hematological malignancies (leukemia), as well as for individual nosologies, in particular, patients with leukemia (combined group) (n=224), T-ALL (n=84), B-ALL (n=100), ALL (n=100), AML (n= 98), AML (n=94) and AML (n= 98) were studied. A total of 798 blood samples from patients with leukemia were examined.
(§4) The drugs Cytosar (Alexan) (Ebewe Pharma, Austria) and doxorubicin (Naprod, Mumbai, India) recommended by WHO for the treatment of the above oncohematological diseases were used as comparison drugs.
(§5) 5 ml of venous blood from sick and conditionally healthy individuals were collected into Vacutainer tubes with the addition of EDTA (Himedia, India).
(§6) The resulting blood was divided into aliquots of 1 ml and 10 µl (10 µg/ml) of the studied drugs (cytosar, doxorubicin, F1 and F2) were added to each tube.

Rat liver hepatocytes = experiment: MTT cytotoxicity on hepatocytes; type: cell-based; settings: Rattus norvegicus, Hepatocyte, 24 hours
Method: (§1) The cytotoxic properties of the compounds were determined in vitro using the MTT method in 96-well plates (Costar, USA). […] Rat liver hepatocytes were obtained according to the method, human blood mononuclear cells - according to [23]. Fibroblast cells were obtained according to the method of [24] with some modifications. Cell cultures were subcultured into 96-well plates according to the method of [21] by adding 100 μl of nutrient medium. The CCRF-CEM suspension culture was poured into a tube, centrifuged at 800 rpm for 10 minutes, and the supernatant was discarded. […] Data obtained in 3 independent experiments were expressed as the mean value for each concentration ± standard error of the mean, relative to the control values (cells without test compounds). The cytotoxic effect of each of the studied compounds was compared with the effect of the cytostatic Cisplatin-Naprod (India), containing cisplatin as an active component. Table 1: IC50 μM value for test compounds

outbred white mice = experiment: Acute toxicity study (LD50)
Method: (§2) We studied the acute toxicity of compound F1 in vivo. The experiments were carried out on outbred white mice of both sexes weighing 18-20 g (24 pcs.). The animals were divided into groups of 12 mice each. The compound was dissolved in DMSO and then adjusted to the desired concentration with 0.9% NaCl solution and administered intraperitoneally and subcutaneously in a dose range from 5.0 to 200.0 mg/kg. […] The maximum relative error of the applied dose was no more than 5%.
as §2, with “F2” for “F1”, “brought” for “adjusted”, “subcutaneously to animals” for “subcutaneously”, “administered” for “applied”

[2] = Acute toxicity study (LD50); settings: mouse, in vivo, ip
Method: as §2
as §2, with “F2” for “F1”, “brought” for “adjusted”, “subcutaneously to animals” for “subcutaneously”, “administered” for “applied”

[3] = system: blood of patients with AML; experiment: Hemogram of blood of patients with AML after exposure (Example 13, Table 10; also OMML); type: cell-based
Method: as §4, §5, §6

[4] = system: blood of patients with T-ALL; experiment: Hemogram of blood of patients with T-ALL after exposure; type: cell-based
Text: as §3, §4, §5, §6

[5] = system: blood of patients with B-ALL; experiment: Hemogram of blood of patients with B-ALL after exposure; type: cell-based
Method: A total of 798 blood samples from patients with leukemia were examined.
as §4, §5, §6

fibroblasts = experiment: MTT cytotoxicity on fibroblasts; type: cell-based; settings: Fibroblast, 24 hours
Method: as §1

[6] = system: CCRF-CEM (CCL-119) (T-lymphoblastic leukemia); experiment: MTT cytotoxicity on CCRF-CEM cells; type: cell-based; settings: Homo sapiens, 24 hours
Method: as §1

[7] = system: blood of patients with AML; experiment: Hemogram of blood of patients with AML after exposure (Example 14, Table 11); type: cell-based; settings: AML (Table 11); 10 µg/ml; 3 hours, 37.0°C
Text: as §3, §4, §5, §6

[8] = system: blood of patients with AML; experiment: Hemogram of blood of patients with AML after exposure (Example 12, Table 9); type: cell-based
Method: as §4, §5, §6

[9] = system: blood of patients with ALL; experiment: Hemogram of blood of patients with ALL after exposure; type: cell-based
Method: as §3, §5, §6

[10] = AML (Example 13), compared with doxorubicin
[11] = AML (Table 10), 10 µg/ml, 3 hours, 37.0°C
[12] = AML (Table 9), 10 µg/ml, 3 hours, 37.0°C

In the case of `C/C=C(/C)C(=O)OC[C@H]1C2=C(C[C@H]3[C@H]4C5=C(C[C@@H]([C@H](C#N)N13)N4C)C(=O)C(C)=C(OC)C5=O)C(=O)C(C)=C(OC)C2=O` [renieramycin M], the IC50 (lung cancer H460) is given as 40 µM.
For `CS(=O)(=O)N1CCC(Nc2n[nH]c3c2nc(-c2c(F)cccc2F)c2cc(C(N)=O)ccc23)CC1` [5-(2,6-difluorophenyl)-3-{[1-(methylsulfonyl)piperidin-4-yl]amino}-1H-pyrazolo[4,3-c]isoquinoline-7-carboxamide], the EC50 (cervical carcinoma cells) is given as 0.259 µM.
In the case of `COc1cc2c(cc1OC)C(c1cc3c(cc1Cl)OCO3)NCC2` (stereo not shown) [Compound F2, 1-(2'-chloro-4',5'-methylenedioxyphenyl)-6,7-dimethoxy-1,2,3,4-tetrahydroisoquinoline], the “Band (s/n) neutrophils” value ([1]; 10 µg/ml, 3 hours, 37.0°C) is reported as 1,6±0,2 %, the Blasts ([1]; 10 µg/ml, 3 hours, 37.0°C) is reported as 65,2±2,8 % and the Destroyed cells ([1]; 10 µg/ml, 3 hours, 37.0°C) is reported as 12,9±1,8 %. The Eosinophils ([1]; 10 µg/ml, 3 hours, 37.0°C) was 1,6±0,3 %, the Lymphocytes ([1]; 10 µg/ml, 3 hours, 37.0°C) was 12,3±1,2% and the Monocytes ([1]; 10 µg/ml, 3 hours, 37.0°C) was 4,7±0,7 %. The Myelocytes ([1]; 10 µg/ml, 3 hours, 37.0°C) was 2,5±0,6 %, the Promyelocytes ([1]; 10 µg/ml, 3 hours, 37.0°C) was 3,8±2,1% and the “Segmented (s/i) neutrophils” value ([1]; 10 µg/ml, 3 hours, 37.0°C) was 5,5±0,9%. For the same compound, the “increase in the level of destroyed cells” value ([1]; compared to the control group) was 2.3 fold, the “decrease in the content of blasts” value ([1]; versus Control group) was 14.6% and the IC50 (Rat liver hepatocytes) was > 100 µM. The toxicity class (outbred white mice; classified from LD50) was “toxicity class 3 (moderately toxic)”, the “LD50 value, times higher than cytosar (cytarabine)” value (outbred white mice; relative to cytosar) was 52 times and the “LD50 value, times higher than doxorubicin” value (outbred white mice; relative to doxorubicin) was 20 times. For the same compound, the LD50 at 168 h [2] was 220 ± 15.6 mg/kg, the “decrease in the percentage of myelocytes” value ([3]; AML (Example 13)) was 2.1 times and the “decrease in the proportion of blasts” value ([3]; AML (Example 13)) was 11.7%. For the same compound, the “increase in the proportion of destroyed cells” value ([3]; AML (Example 13)) was 2.6 times, the “increase in the proportion of neutrophils” value ([3]; AML (Example 13)) was 2.3 times and the “proportion of destroyed cells higher” value ([3]; AML (Example 13), compared with Cytosar) was 2.1 times. The “percentage of lymphocytes lower” value [3, 10] was 1.9 times, the “percentage of neutrophils lower” value [3, 10] was 1.7 times and the “percentage of myelocytes lower” value ([3]; AML (Example 13), relative to cytosar) was 5.0 times. The “Band (s/n) neutrophils” value [3, 11] was 2,9±0,4%, the Blasts [3, 11] was 51,9±2,2% and the Destroyed cells [3, 11] was 16,6±1,6*^ %. The Eosinophils [3, 11] was 0,5±0,2%, the Lymphocytes [3, 11] was 3,2±0,8 % and the Monocytes [3, 11] was 3,2±0,4 %. For the same compound, the Myelocytes [3, 11] was 3,2±0,5 %, the Promyelocytes [3, 11] was 0,0±0,0% and the “Segmented (s/i) neutrophils” value [3, 11] was 18,6±1,7 %. For the same compound, the “Band (s/n) neutrophils” value ([4]; 10 µg/ml, 3 hours, 37.0°C) was 0,8±0,2%, the Blasts ([4]; 10 µg/ml, 3 hours, 37.0°C) was 68,2±2,2 % and the Destroyed cells ([4]; 10 µg/ml, 3 hours, 37.0°C) was 16,1±1,3 A %. For the same compound, the Eosinophils ([4]; 10 µg/ml, 3 hours, 37.0°C) was 0,0±0,0%, the Lymphocytes ([4]; 10 µg/ml, 3 hours, 37.0°C) was 6,7±0,6*^ # % and the Monocytes ([4]; 10 µg/ml, 3 hours, 37.0°C) was 1,2±0,2*^ %. For the same compound, the Myelocytes ([4]; 10 µg/ml, 3 hours, 37.0°C) was 0,0±0,0%, the Promyelocytes ([4]; 10 µg/ml, 3 hours, 37.0°C) was 0,0±0,000% and the “Segmented (s/i) neutrophils” value ([4]; 10 µg/ml, 3 hours, 37.0°C) was 7,0±1,0*^ %. For the same compound, the “increase in the percentage of destroyed cells” value ([4]; comparator not stated) was 1.8 times, the decrease in lymphocytes ([4]; compared with doxorubicin) was 1.7 times and the decrease in monocytes ([4]; compared with doxorubicin) was 1.9 times. The “increase in the proportion of mature and differentiated neutrophils” value ([4]; comparison with the cytosar group) was 2.3 times, the “decrease in the content of blasts” value [5] was 1.27 times and the “increase in the proportion of destroyed cells” value [5] was 4.9 times. For the same compound, the “Band (s/n) neutrophils” value ([5]; 10 µg/ml, 3 hours, 37.0°C) was 1,7±0,4%, the Blasts ([5]; 10 µg/ml, 3 hours, 37.0°C) was 53,9±2,6 % and the Destroyed cells ([5]; 10 µg/ml, 3 hours, 37.0°C) was 15,2±1,8*^ %. For the same compound, the Eosinophils ([5]; 10 µg/ml, 3 hours, 37.0°C) was 0,0±0,0%, the Lymphocytes ([5]; 10 µg/ml, 3 hours, 37.0°C) was 14,6±2,0% and the Monocytes ([5]; 10 µg/ml, 3 hours, 37.0°C) was 2,8±0,9%. For the same compound, the Myelocytes ([5]; 10 µg/ml, 3 hours, 37.0°C) was 0,8±0,2%, the Promyelocytes ([5]; 10 µg/ml, 3 hours, 37.0°C) was 0,0±0,0% and the “Segmented (s/i) neutrophils” value ([5]; 10 µg/ml, 3 hours, 37.0°C) was 11,1±2,0 %. The IC50 (fibroblasts) was > 100 µM, the IC50 [6] was 21 µM and the “Band (s/n) neutrophils” value [7] was 1,2±0,3%. The Blasts [7] was 59,1±3,3 %, the Destroyed cells [7] was 19,3±1,7 % and the Eosinophils [7] was 0,5±0,2%. For the same compound, the Lymphocytes [7] was 8,2±1,1%, the Monocytes [7] was 1,8±0,3% and the Myelocytes [7] was 0,4±0,1%. The Promyelocytes [7] was 0,0±0,0%, the “Segmented (s/i) neutrophils” value [7] was 9,6±2,5% and the “decrease in the percentage of blasts” value ([8]; AML (Example 12)) was 1.2 times. The “increase in the level of destroyed cells” value ([8]; AML (Example 12)) was 4.0 times, the “increase in the proportion of mature differentiated neutrophils” value ([8]; AML (Example 12)) was 2.0 times and the “Band (s/n) neutrophils” value [8, 12] was 0,9±0,4%. For the same compound, the Blasts [8, 12] was 65,6±2,4 %, the Destroyed cells [8, 12] was 8,2±1,1% and the Eosinophils [8, 12] was 0,8±0,5%. For the same compound, the Lymphocytes [8, 12] was 11,5±1,8%, the Monocytes [8, 12] was 4,4±0,9% and the Myelocytes [8, 12] was 1,3±0,7%. The Promyelocytes [8, 12] was 0,4±0,2%, the “Segmented (s/i) neutrophils” value [8, 12] was 7,0±1,1 % and the “Band (s/n) neutrophils” value ([9]; 10 µg/ml, 3 hours, 37.0°C) was 0,7±0,2%. For the same compound, the Blasts ([9]; 10 µg/ml, 3 hours, 37.0°C) was 67,9±1,6*^ %, the Destroyed cells ([9]; 10 µg/ml, 3 hours, 37.0°C) was 13,2±1,4*^ # % and the Eosinophils ([9]; 10 µg/ml, 3 hours, 37.0°C) was 0,2±0,1%. For the same compound, the Lymphocytes ([9]; 10 µg/ml, 3 hours, 37.0°C) was 13,4±1,3%, the Monocytes ([9]; 10 µg/ml, 3 hours, 37.0°C) was 1,1±0,3% and the Myelocytes ([9]; 10 µg/ml, 3 hours, 37.0°C) was 0,0±0,0%. For the same compound, the Promyelocytes ([9]; 10 µg/ml, 3 hours, 37.0°C) was 0,0±0,0%, the “Segmented (s/i) neutrophils” value ([9]; 10 µg/ml, 3 hours, 37.0°C) was 3,7±0,7 % and the “percentage of destroyed cells higher” value ([9]; compared to cytosar) was 2.8 times. The “difference in the level of blast cells” value ([9]; compared with cytosar) was 1.16 times and the “increase in the proportion of destroyed cells” value ([9]; in comparison with doxorubicin) was 2.75 times.
